Data on five compounds can be found in patent publication US8859463B2, “Method for controlling noxious organisms” (Sumitomo Chemical Company, Limited, priority 2009, dated 2014).

What all share (assay type): in vivo
Data set [1] concerns Ipomoea hederacea. In words: Herbicidal effect, corn Wagner pot test, Example 7. Particulars: day 11 after sowing, scale 0 to 100. The protocol:
(§1) The plastic cup was shaken by the hand so as to attach the clothianidin suspension to the corn seeds.
(§2) A soil was packed in a 1/5000a Wagner pot. The above corn seeds. were sown in the Wagner pot at a rate of one seed per pot, and the seeds of Ipomoea hederacea were sown in the pot at a rate of three seeds per pot. […] The aqueous diluted solution of saflufenacil was prepared by dissolving a given amount of saflufenacil in acetone containing 2% (w/v) of Tween 20, and diluting this solution with water to an acetone concentration of 10% (v/v).
(§3) On day 11 after sowing of the seeds of corn and Ipomoea hederacea, the herbicidal effect and phytotoxicity were examined.

Data set [2] concerns Spodoptera litura. The experiment in a line: Insecticidal effect (protective value), corn pot test, Example 5. The note with it: day 3 after release. The protocol:
(§4) The evaluation of the insecticidal effect was performed by determining the life and death of the insects at the time of the investigation and calculating the protective value according to the following equation; Protective Value (%)=100×(1−T/C) wherein the symbols have the following meanings;
(§5) C: The number of insects at the time of observation in an untreated section: and
(§6) T: The number of insects at the time of observation in a treated section.
(§7) In addition, the clothianidin suspension was attached to the corn seeds in a similar manner except that it was used in an amount of 217.5 μL.
The aqueous diluted solution of saflufenacil was prepared by dissolving a given amount of saflufenacil in acetone containing 2% (w/v) of Tween 20, and diluting this solution with water to an acetone concentration of 10% (v/v).
(§8) Thereafter, the test pot was placed in a greenhouse. On day 22 after corn sowing, 10 fourth-instar larvae of Spodoptera litura were released in the pot and the whole pot was then covered with a nylon cloth.
(§9) On day 3 after release of Spodoptera litura, the insecticidal effect was examined.

In data set [3] the test system is Ipomoea lacunosa. The experiment in a line: Herbicidal activity, corn pot test, Example 76. The note with it: metalaxyl-M none, ten days after sowing. The protocol: In a glass container measuring 60 mm in inner diameter and 20 mm in height, 15 mg of a metalaxyl-M emulsifiable concentrate (emulsifiable concentrate containing 33.3% metalaxyl-M, manufactured by Syngenta under the trade name of Apron XL) and 25 corn seeds were placed. After capping this glass container, the metalaxyl-M emulsifiable concentrate was adhered to the corn seeds by shaking the glass container by hand. In the same manner, 33 mg of the metalaxyl-M emulsifiable concentrate was adhered to the corn seeds.
(§10) A plastic pot measuring 194 mm in inner diameter and 176 mm in height was filled with the soil. In this pot, 2 corn seeds were sown per 1 pot and 10 seeds of Ipomoea lacunosa were sown per 1 pot. On the day of sowing of the corn seeds, after sowing the corn seeds, a water diluted solution (24.5 mg of product/liter) of a flumioxazin granular wettable powder (granular wettable powder containing 51% flumioxazin, manufactured by Valent USA Corporation under the trade name of Valor SX), a water diluted solution (66.7 mg of product/liter) of a sulfentrazone granular wettable powder (granular wettable powder containing 75% sulfentrazone manufactured by FMC Corporation under the trade name of Cover), a water diluted solution (15 mg/liter) of saflufenacil and a water diluted solution (100 mg/liter) of oxyfluorfen were uniformly sprayed over a surface of the soil in each amount described in Tables 28 to 31, using a sprayer. The water diluted solutions of saflufenacil and oxyfluorfen were prepared by dissolving each predetermined amount of saflufenacil and oxyfluorfen in acetone containing 2% (w/v) Tween 20 and diluting each solution with water so as to adjust the concentration of acetone to 10% by volume.
Ten days after sowing the seeds of corn and Ipomoea lacunosa, herbicidal activity was examined.

Data set [4] has as its system Ipomoea hederacea. The experiment in a line: Herbicidal activity, corn pot test, Example 16. Particulars: azole seed treatment none, saflufenacil 30 g/ha, twelve days after sowing. The protocol: In a glass container measuring 60 mm in inner diameter and 20 mm in height, 8 μl of a prothioconazole emulsifiable concentrate (emulsifiable concentrate containing 25% prothioconazole, manufactured by Bayer Crop Science Inc. under the trade name of Proline) and 20 corn seeds were placed. The prothioconazole emulsifiable concentrate was adhered to the corn seeds by shaking this plastic cup by hand. In the same manner, 8 μl of a difenoconazole emulsifiable concentrate (emulsifiable concentrate containing 25% difenoconazole, manufactured by Syngenta under the trade name of Score) was adhered to 20 corn seeds. In the same manner, 50 mg of a tebuconazole suspension (suspension containing 20% tebuconazole, manufactured by Hokko Chemical Industry under the trade name of ONLY ONE Flowable) was adhered to 20 corn seeds.
A plastic pot measuring 194 mm in inner diameter and 176 mm in height was filled with the soil. In this pot, 3 corn seeds were sown per 1 pot and 10 seeds of Ipomoea hederacea were sown per 1 pot. […]

Data set [5] has as its system Ipomoea lacunosa. The experiment in a line: Herbicidal activity, corn pot test, Example 59. The note with it: pyraclostrobin none, twelve days after sowing. The protocol: In a glass container measuring 60 mm in inner diameter and 20 mm in height, 8 mg of a pyraclostrobin emulsifiable concentrate (emulsifiable concentrate containing 23.8% pyraclostrobin, manufactured by BASF under the trade name of Comet) and 25 corn seeds were placed. After capping a glass container, the pyraclostrobin emulsifiable concentrate was adhered to the corn seeds by shaking the glass container by hand. In the same manner, 22 mg of the pyraclostrobin emulsifiable concentrate was adhered to the corn seeds.
as §10, with “75% sulfentrazone,” for “75% sulfentrazone”, “Tables 22” for “Tables 28”, “to 25,” for “to 31,”
Twelve days after sowing the seeds of corn and Ipomoea lacunose, herbicidal activity was examined.

The next data set deals with corn. In words: Phytotoxicity to corn, Example 7. Particulars: day 11 after sowing. The protocol:
as §1, §2, §3

The test system of data set [6] is Aulacorthum solani. In words: Insecticidal effect (protective value), soybean pot test, Example 2. Particulars: thiamethoxam 78.9 g/ha; flumioxazin none; day 6 after release. The protocol:
as §4, §5, §6
(§11) Thereafter, the test pot was placed in a greenhouse.

The next data set concerns soybean. The experiment in a line: Phytotoxicity to soybean, Example 6. The note with it: clothianidin 73 g/ha; flumioxazin none; day 11 after sowing. An excerpt: (§12) A soil was packed in a 1/5000a Wagner pot. The above soybean seeds were sown in the Wagner pot at a rate of two seeds per pot, and the seeds of Ipomoea hederacea were sown in the pot at a rate of three seeds per pot.
(§13) On day 11 after sowing of the seeds of soybean and Ipomoea hederacea, the herbicidal effect and phytotoxicity were examined.

Data set [7] relates to Ipomoea hederacea. In words: Herbicidal effect, soybean Wagner pot test, Example 6. The note with it: clothianidin 73 g/ha; flumioxazin none; day 11 after sowing; scale 0 to 100.
Text: as §12, §13

Data set [8] has as its system Aulacorthum solani. In words: Insecticidal effect (protective value), soybean pot test, Example 1. Particulars: clothianidin 44.7 g/ha; flumioxazin none; day 6 after release. The protocol: as §4, §5, §6, §11
The subject of data set [9] is Spodoptera litura. The experiment in a line: Insecticidal effect (protective value), corn pot test, Example 4. Particulars: flumioxazin none, day 3 after release. The protocol:
as §4, §5, §6, §7, §8, §9

The subject of data set [10] is Aulacorthum solani. In words: Insecticidal effect (protective value), soybean pot test, Example 3. The note with it: day 7 after release. The protocol:
as §4, §5, §6, §11

[11] abbreviates: clothianidin none, saflufenacil 32 g/ha.
Where [12] appears, read: clothianidin 340 g/ha, saflufenacil none.
[13] abbreviates: clothianidin 605 g/ha, saflufenacil none.

Consider `CC(C)N(C)S(=O)(=O)NC(=O)c1cc(-n2c(=O)cc(C(F)(F)F)n(C)c2=O)c(F)cc1Cl` [Saflufenacil, saflufenacil], for which the “Evaluation of Effect on Weeds” value in the data set with Ipomoea hederacea [1] (setting [11]) is given as 50. For the same compound, the “Protective Value” is 0% with Spodoptera litura [2] (setting [11]) and 0% in the data set on Spodoptera litura [2] (clothianidin none, saflufenacil 125 g/ha). Moreover, the Herbicidal activity in the data set on Ipomoea lacunosa [3] (saflufenacil 30 g/ha) and with Ipomoea lacunosa [5] (saflufenacil 30 g/ha) was 45 in each case. Moreover, the “Herbicidal activity on Ipomoea hederacea” value with Ipomoea hederacea [4] turned out to be 88. In addition, the “Phytotoxicity to Corn” value with corn (setting [11]) is on record as “No harm”.
As to `CN1COCN(Cc2cnc(Cl)s2)/C1=N\[N+](=O)[O-]` [Thiamethoxam, thiamethoxam], in the data set with Aulacorthum solani [6], the “Protective Value” worked out at 86.9%.
In the case of `CCOc1cc(Oc2ccc(C(F)(F)F)cc2Cl)ccc1[N+](=O)[O-]` [Oxyfluorfen, oxyfluorfen], the Herbicidal activity in the data set on Ipomoea lacunosa [3] (oxyfluorfen 200 g/ha) and with Ipomoea lacunosa [5] (oxyfluorfen 200 g/ha) was 45 in each case.
As to `CN/C(=N\[N+](=O)[O-])NCc1cnc(Cl)s1` [Clothianidin, clothianidin], the “Evaluation of Effect on Weeds” value in the data set on Ipomoea hederacea [1] (setting [12]), in the data set with Ipomoea hederacea [1] (setting [13]) and in the data set on Ipomoea hederacea [7] was 0 each time. Further, the “Protective Value” in the data set with Spodoptera litura [2] (clothianidin 272 g/ha, saflufenacil none) is 30%; in the data set with Spodoptera litura [2] (clothianidin 496 g/ha, saflufenacil none) it was 40%; in the data set on Aulacorthum solani [8], 59.1%; in the data set on Spodoptera litura [9] (clothianidin 553 g/ha) it was 30%; in the data set with Spodoptera litura [9] (clothianidin 984 g/ha), 65%; in the data set with Aulacorthum solani [10] (clothianidin 55.3 g/ha, sulfentrazone none), 55.2%. In addition, the “Phytotoxicity to Corn” value in the data set with corn (setting [12]) and with corn (setting [13]) was “No harm” each time. Moreover, the “Phytotoxicity to Soybean” value with soybean was “No harm”.
Regarding `Cc1nn(-c2cc(NS(C)(=O)=O)c(Cl)cc2Cl)c(=O)n1C(F)F` [Sulfentrazone, sulfentrazone], the Herbicidal activity with Ipomoea lacunosa [3] (sulfentrazone 100 g/ha) and with Ipomoea lacunosa [5] (sulfentrazone 100 g/ha) was 40 in each case. The “Protective Value” with Aulacorthum solani [10] (clothianidin none, sulfentrazone 200 g/ha) was determined as 0%.
